This passage reports Ki results from ChEMBL document CHEMBL1141925, “Carbonic anhydrase inhibitors. Inhibition of the cytosolic and tumor-associated carbonic anhydrase isozymes I, II, and IX with a series of 1,3,4-thiadiazole- and 1,2,4-triazole-thiols” (Bioorg Med Chem Lett, 2005).

Experiment [1] has as its target Carbonic anhydrase 9 (Homo sapiens, UniProt Q16790). Description: Inhibitory constant against human Carbonic anhydrase IX.
Experiment [2] concerns the target Carbonic anhydrase 2 (Homo sapiens, UniProt P00918).
Description: Inhibitory constant against human Carbonic anhydrase II
Experiment [3] addresses Carbonic anhydrase 1 (Homo sapiens, UniProt P00915).

Sequence of Carbonic anhydrase 1 (P00915 whole entry): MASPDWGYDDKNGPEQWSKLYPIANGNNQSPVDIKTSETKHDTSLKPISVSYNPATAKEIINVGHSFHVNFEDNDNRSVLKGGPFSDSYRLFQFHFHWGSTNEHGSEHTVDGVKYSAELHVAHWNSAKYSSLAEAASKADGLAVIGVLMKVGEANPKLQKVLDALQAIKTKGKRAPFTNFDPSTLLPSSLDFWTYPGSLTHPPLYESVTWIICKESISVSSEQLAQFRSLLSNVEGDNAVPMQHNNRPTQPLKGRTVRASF

On to `Nc1nnc(S)s1`, for which the inhibition constant Ki in experiment [1] is 9.3 µM.

As to `CCCCn1c(-c2ccc(S(=O)(=O)c3ccc(Cl)cc3)cc2)n[nH]c1=S`, the Ki was determined as 96.8 µM in experiment [1], 227 µM in experiment [2] and 273 µM in experiment [3].

The molecule `O=C(Nc1ccc(Cl)c(Cl)c1)Nc1nnc(S)s1` showed an inhibitory constant (Ki) in experiment [1] of 271 µM.

Turning to `O=C(Nc1nnc(S)s1)NS(=O)(=O)Nc1nnc(S)s1`, in experiment [1], the Ki was 322 µM.

In turn, `O=[N+]([O-])c1ccc(SNc2n[nH]c(=S)s2)cc1` returned an inhibition constant (Ki) in experiment [1] of 256 µM.

Take `CCCCn1c(S)nnc1-c1ccc(S(=O)(=O)c2ccccc2)cc1`: the inhibition constant Ki in experiment [2] amounted to 604 µM; in experiment [3], 415 µM.

In experiment [1], `O=C(Nc1nnc(S)s1)N(c1ccccc1)c1ccccc1` returned a Ki of 271 µM.

As for `O=C(Nc1nnc(S)s1)c1c(F)c(F)c(F)c(F)c1F`, the results for the inhibitory constant (Ki) in experiment [1], in experiment [2] and in experiment [3] were 312 µM, 129 µM and 308 µM, respectively.

As for `O=[N+]([O-])c1ccccc1S(=O)(=O)Nc1n[nH]c(=S)s1`, the inhibition constant Ki was 315 µM in experiment [1], 230 µM in experiment [2] and 303 µM in experiment [3].

Consider `CCCn1c(-c2ccc(S(=O)(=O)c3ccc(Br)cc3)cc2)n[nH]c1=S`, for which the Ki in experiment [1] is 772 µM; in experiment [2], 382 µM; in experiment [3], 508 µM.

In the case of `CC(=O)Nc1nnc(S)s1`, the results for the inhibition constant Ki in experiment [1], in experiment [2] and in experiment [3] were 9.5 µM, 8.8 µM and 4.5 µM, respectively.

For `Cc1ccc(-n2c(-c3ccc(S(=O)(=O)c4ccc(Br)cc4)cc3)n[nH]c2=S)cc1`, the figures for the Ki in experiment [1], in experiment [2] and in experiment [3] were 60.4 µM, 251 µM and 249 µM, respectively.

In experiment [1], `CCCCn1c(-c2ccc(S(=O)(=O)c3ccc(Br)cc3)cc2)n[nH]c1=S` showed a Ki of 11.5 µM.

In experiment [1], `CN(C)c1cccc2c(S(=O)(=O)Nc3nnc(S)s3)cccc12` gave a Ki of 296 µM.

As to `O=C(Nc1nnc(S)s1)c1ccccn1`, the Ki in experiment [1] came to 306 µM.

Consider `CCCn1c(-c2ccc(S(=O)(=O)c3ccc(Cl)cc3)cc2)n[nH]c1=S`, for which the Ki worked out at 9.8 µM in experiment [1], 618 µM in experiment [2] and 548 µM in experiment [3].

Turning to `O=C(O)c1cccnc1C(=O)Nc1nnc(S)s1`, affinity in experiment [1] was put at a Ki of 242 µM.

`CCCn1c(S)nnc1-c1ccc(S(=O)(=O)c2ccccc2)cc1`: the values for the Ki in experiment [1], in experiment [2] and in experiment [3] were 119 µM, 276 µM and 290 µM, respectively.

Take `Cc1cccc(-n2c(-c3ccc(S(=O)(=O)c4ccc(Br)cc4)cc3)n[nH]c2=S)c1`: the figures for the inhibitory constant (Ki) in experiment [1], in experiment [2] and in experiment [3] were 320 µM, 301 µM and 254 µM, respectively.

A word on the Ki: it is the dissociation constant of the complex between target and ligand, obtained from inhibition or displacement. Higher therefore signals lower affinity.
